Source: patent US20030181389A1, “Therapeutic and prophylactic use of reduced forms of pharmaceutical compounds” (priority 2000, published 2003)
Marks after values point to notes of the source that are not given here.

Tests used:
[1] = direct oxidation of leuco compounds by potassium superoxide; format: biochemical; conditions: for final optical density leucomethylene blue (665 nm) / direct oxidation of the leuco compound by potassium superoxide / final optical density leucothionine (605 nm): approximately 10 μM, pH 7.8; for final optical density leucomethylene blue (665 nm) / final optical density leucothionine (605 nm): potassium superoxide; for colour change of the cell: after potassium superoxide addition; for direct oxidation of the leuco compound by potassium superoxide: EDTA 100 μM
Procedure: In a further experiment, potassium superoxide was added to a reaction cell containing buffers, EDTA and concentrations of leucothionine and leucomethylene blue. Direct oxidation of the leuco compounds was observed by superoxide.
Potassium superoxide was added directly to nitrogen gassed potassium phosphate buffer (pH 7.8) containing EDTA (100 μM) and approximately 10 μM concentration of leucothionine and leucomethylene blue.
Due to the effervescence of the cell, a known property of potassium superoxide in water, no measurements were possible in the first 4 minutes of the reaction.

[2] = oxygen superoxide scavenging (recent research); format: biochemical; conditions: stabilised leucomethylene blue
[3] = xanthine/xanthine oxidase superoxide assay: oxidation of leuco compounds, with SOD added after sixth minute; format: biochemical; conditions: for effect of addition of SOD on rate of oxidation of the leuco compound: 5 units of SOD added after the sixth minute; for oxidation of leucomethylene blue (665 nm), rate of change of optical density / oxidation of leucothionine (605 nm), rate of change of optical density: 12.5 μM
Excerpt: The principle upon which the following assay is based is that the enzyme xanthine oxidase acts on xanthine to oxidise xanthine and thereby to reduce ferricytochrome C by a mechanism which, at least partly, involves superoxide. Thus, the reduction (and increase) in optical density of ferricytochrome C is dependent on superoxide as a reductant. The inclusion of superoxide dismutase (“SOD”) in the assay serves to dismutate some of the available superoxide, thus causing a decrease in the rate of reduction of ferricytochrome C. […]
Superoxide is a single electron reductant or oxidant.
To explore the effect of leucothionine and leucomethylene blue, these compounds were mixed at 12.5 μM concentration in 50 mM potassium phosphate buffer (pH 7.8) with xanthine (50 μM) and EDTA (100 μM) buttermilk xanthine oxidase (around […]) was then added to give a rate of increase in absorbance of about 0.1 optical density units (for methylene blue at 665 nm and for thionine at 605 nm) per minute at 30° C. above controls using leucothionine or leucomethylene blue, potassium phosphate buffer, xanthine and EDTA alone.

[4] = adrenochrome system: auto-oxidation of dl-epinephrine; format: biochemical; conditions: dl-epinephrine 500 μM, pH 10.2; for oxidation peak of Leucomethylene blue (665 nm) / effect on appearance of adrenochrome at 310 nm / oxidation peak of Leucothionine (605 nm): 50 μM; for appearance of adrenochrome (310 nm) in presence of leuco compound: leuco compound 50 μM; for appearance of adrenochrome (310 nm) in presence of leuco compound / effect on appearance of adrenochrome at 310 nm: 30° C.
Excerpt: In another experiment, the results of the experiment in Example 1 above were confirmed by using the adrenochrome system. In this system, dl-epinephrine is auto-oxidised under alkaline conditions by a superoxide dependent pathway. The reaction rate of this reaction can be decreased or interrupted by the addition of SOD, which scavenges superoxide. […] In this system, the rate of auto-oxidation of dl-epinephrine is decreased by the presence of either leuco compound, while the leuco compounds themselves are oxidised by superoxide in a rate dependent manner.
In this experiment, dl-epinephrine (500 μM) was allowed to auto-oxidise in 50 mM sodium carbonate buffer (pH 10.2) containing EDTA (100 μM) at 30° C. under these conditions, epinephrine is oxidised to adrenochrome (310 or 485 nm increase in absorption).

haemoglobin = conditions: chronic toxicity studies, laboratory animals; cited from earlier work
[5] = minute 1, before SOD, pH 7.8, 30° C.
[6] = minute 2, before SOD, pH 7.8, 30° C.
[7] = minute 3, before SOD, pH 7.8, 30° C.
[8] = minute 4, before SOD, pH 7.8, 30° C.
[9] = minute 5, before SOD, pH 7.8, 30° C.
[10] = minute 6, before SOD, pH 7.8, 30° C.
[11] = minute 7, after addition of 5 units of SOD
[12] = minute 8, after addition of 5 units of SOD
[13] = minute 9, after addition of 5 units of SOD
[14] = minute 10, after addition of 5 units of SOD
[15] = minute 11, after addition of 5 units of SOD
[16] = minute 12, after addition of 5 units of SOD

## CN(C)c1ccc2c(c1)Sc1cc(N(C)C)ccc1N2 [leucomethylene blue]
[1]; 0 minutes
  final optical density leucomethylene blue (665 nm): 0.015
[1]; 5 minutes
  final optical density leucomethylene blue (665 nm): 0.38
[1]; 6 minutes
  final optical density leucomethylene blue (665 nm): 0.44
[1]; 7 minutes
  final optical density leucomethylene blue (665 nm): 0.46
[1]; 8 minutes
  final optical density leucomethylene blue (665 nm): 0.44
[1]
  colour change of the cell: colourless to blue
  direct oxidation of the leuco compound by potassium superoxide: rapidly oxidised to their coloured oxidised states
[2]
  oxygen superoxide scavenging: powerful oxygen superoxide scavenger
[3]
  effect of addition of SOD on rate of oxidation of the leuco compound: decreased the rate of oxidation
[3]; [5]
  oxidation of leucomethylene blue (665 nm), rate of change of optical density: 0.096
[3]; [6]
  oxidation of leucomethylene blue (665 nm), rate of change of optical density: 0.102
[3]; [7]
  oxidation of leucomethylene blue (665 nm), rate of change of optical density: 0.110
[3]; [8]
  oxidation of leucomethylene blue (665 nm), rate of change of optical density: 0.101
[3]; [9]
  oxidation of leucomethylene blue (665 nm), rate of change of optical density: 0.099
[3]; [10]
  oxidation of leucomethylene blue (665 nm), rate of change of optical density: 0.103
[3]; [11]
  oxidation of leucomethylene blue (665 nm), rate of change of optical density: 0.030 *
[3]; [12]
  oxidation of leucomethylene blue (665 nm), rate of change of optical density: 0.017
[3]; [13]
  oxidation of leucomethylene blue (665 nm), rate of change of optical density: 0.014
[3]; [14]
  oxidation of leucomethylene blue (665 nm), rate of change of optical density: 0.013
[3]; [15]
  oxidation of leucomethylene blue (665 nm), rate of change of optical density: 0.010
[3]; [16]
  oxidation of leucomethylene blue (665 nm), rate of change of optical density: 0.010
[4]; 0 minutes
  oxidation peak of Leucomethylene blue (665 nm): 0.006
  appearance of adrenochrome (310 nm) in presence of leuco compound: 0.005
[4]
  effect on appearance of adrenochrome at 310 nm: effective in reducing the appearance of adrenochrome
[4]; 1 minute
  oxidation peak of Leucomethylene blue (665 nm): 0.093
  appearance of adrenochrome (310 nm) in presence of leuco compound: 0.031
[4]; 2 minutes
  oxidation peak of Leucomethylene blue (665 nm): 0.110
  appearance of adrenochrome (310 nm) in presence of leuco compound: 0.021
[4]; 3 minutes
  oxidation peak of Leucomethylene blue (665 nm): 0.120
  appearance of adrenochrome (310 nm) in presence of leuco compound: 0.030
[4]; 4 minutes
  oxidation peak of Leucomethylene blue (665 nm): 0.116
  appearance of adrenochrome (310 nm) in presence of leuco compound: 0.035
[4]; 5 minutes
  oxidation peak of Leucomethylene blue (665 nm): 0.121
  appearance of adrenochrome (310 nm) in presence of leuco compound: 0.031
[4]; 6 minutes
  oxidation peak of Leucomethylene blue (665 nm): 0.119
  appearance of adrenochrome (310 nm) in presence of leuco compound: 0.038

## Nc1ccc2c(c1)Sc1cc(N)ccc1N2 [leucothionine]
[1]; 0 minutes
  final optical density leucothionine (605 nm): 0.035
[1]; 5 minutes
  final optical density leucothionine (605 nm): 0.42
[1]; 6 minutes
  final optical density leucothionine (605 nm): 0.45
[1]; 7 minutes
  final optical density leucothionine (605 nm): 0.45
[1]; 8 minutes
  final optical density leucothionine (605 nm): 0.46
[1]
  colour change of the cell: purple
  direct oxidation of the leuco compound by potassium superoxide: rapidly oxidised to their coloured oxidised states
[3]
  effect of addition of SOD on rate of oxidation of the leuco compound: decreased the rate of oxidation
[3]; [5]
  oxidation of leucothionine (605 nm), rate of change of optical density: 0.086
[3]; [6]
  oxidation of leucothionine (605 nm), rate of change of optical density: 0.093
[3]; [7]
  oxidation of leucothionine (605 nm), rate of change of optical density: 0.093
[3]; [8]
  oxidation of leucothionine (605 nm), rate of change of optical density: 0.095
[3]; [9]
  oxidation of leucothionine (605 nm), rate of change of optical density: 0.101
[3]; [10]
  oxidation of leucothionine (605 nm), rate of change of optical density: 0.096
[3]; [11]
  oxidation of leucothionine (605 nm), rate of change of optical density: 0.041 *
[3]; [12]
  oxidation of leucothionine (605 nm), rate of change of optical density: 0.009
[3]; [13]
  oxidation of leucothionine (605 nm), rate of change of optical density: 0.009
[3]; [14]
  oxidation of leucothionine (605 nm), rate of change of optical density: 0.011
[3]; [15]
  oxidation of leucothionine (605 nm), rate of change of optical density: 0.008
[3]; [16]
  oxidation of leucothionine (605 nm), rate of change of optical density: 0.009
[4]; 0 minutes
  oxidation peak of Leucothionine (605 nm): 0.007
  appearance of adrenochrome (310 nm) in presence of leuco compound: 0.005
[4]
  effect on appearance of adrenochrome at 310 nm: effective in reducing the appearance of adrenochrome
[4]; 1 minute
  oxidation peak of Leucothionine (605 nm): 0.083
  appearance of adrenochrome (310 nm) in presence of leuco compound: 0.034
[4]; 2 minutes
  oxidation peak of Leucothionine (605 nm): 0.121
  appearance of adrenochrome (310 nm) in presence of leuco compound: 0.027
[4]; 3 minutes
  oxidation peak of Leucothionine (605 nm): 0.110
  appearance of adrenochrome (310 nm) in presence of leuco compound: 0.033
[4]; 4 minutes
  oxidation peak of Leucothionine (605 nm): 0.114
  appearance of adrenochrome (310 nm) in presence of leuco compound: 0.034
[4]; 5 minutes
  oxidation peak of Leucothionine (605 nm): 0.116
  appearance of adrenochrome (310 nm) in presence of leuco compound: 0.028
[4]; 6 minutes
  oxidation peak of Leucothionine (605 nm): 0.120
  appearance of adrenochrome (310 nm) in presence of leuco compound: 0.032

## CN(C)c1ccc2nc3ccc(=[N+](C)C)cc-3sc2c1 [methylene blue]
haemoglobin
  haematological toxicity on repeated administration of high doses: causes oxidation of haemoglobin to methaemoglobin and tissue accumulation of Heinz bodies
